In patent EP1157985A1 (G.D. SEARLE & CO., priority 1996, dated 1997):
Where a name gives a salt, the structure may show the parent alone. Read-outs that look alike come from different tables or passages of the source.

Assays:
[1] = biological target: T1, Human vitronectin receptor (αvβ3) (Homo sapiens, UniProt P05106+P06756); assay: Vitronectin adhesion assay (solid phase receptor assay, competition with biotinylated vitronectin); format: binding
T1 construct: Human vitronectin receptor (αvβ3) was purified from human placenta; from tissue; host or cells: human placenta
Procedure: VITRONECTIN ADHESION ASSAY
Human vitronectin receptor (αvβ3) was purified from human placenta as previously described [Pytela et al., Methods in Enzymology, 144:475-489 (1987)]. Human vitronectin was purified from fresh frozen plasma as previously described [Yatohgo et al., Cell Structure and Function, 13:281-292 (1988)]. Biotinylated human vitronectin was prepared by coupling NHS-biotin from Pierce Chemical Company (Rockford, IL) to purified vitronectin as previously described [Charo et al., J. Biol. Chem., 266(3):1415-1421 (1991)]. Assay buffer, OPD substrate tablets, and RIA grade BSA were obtained from Sigma (St. Louis, MO). Anti-biotin antibody was obtained from Calbiochem (La Jolla, CA). Linbro microtiter plates were obtained from Flow Labs (McLean, VA). ADP reagent was obtained from Sigma (St. Louis, MO).
This assay was essentially the same as previously reported [Niiya et al., Blood, 70:475-483 (1987)]. The purified human vitronectin receptor (αvβ3) was diluted from stock solutions to 1.0 µg/mL in Tris-buffered saline containing 1.0 mM Ca^++, Mg^++, and Mn^++, pH 7.4 (TBS^+++). The diluted receptor was immediately transferred to Linbro microtiter plates at 100 µL/well (100 ng receptor/well). The plates were sealed and incubated overnight at 4°C to allow the receptor to bind to the wells. All remaining steps were at room temperature. The assay plates were emptied and 200 µL of 1% RIA grade BSA in TBS^+++ (TBS^+++/BSA) were added to block exposed plastic surfaces. Following a 2 hour incubation, the assay plates were washed with TBS^+++ using a 96 well plate washer. Logarithmic serial dilution of the test compound and controls were made starting at a stock concentration of 2 mM and using 2 nM biotinylated vitronectin in TBS^+++/BSA as the diluent. This premixing of labeled ligand with test (or control) ligand, and subsequent transfer of 50 µL aliquots to the assay plate was carried out with a CETUS Propette robot; the final concentration of the labeled ligand was 1 nM and the highest concentration of test compound was 1.0 x 10^-4 M. The competition occurred for two hours after which all wells were washed with a plate washer as before. Affinity purified horseradish peroxidase labeled goat anti-biotin antibody was diluted 1:3000 in TBS^+++/BSA and 125 µL were added to each well. After 30 minutes, the plates were washed and incubated with OPD/H2O2 substrate in 100 mM/L Citrate buffer, pH 5.0. The plate was read with a microtiter plate reader at a wavelength of 450 nm and when the maximum-binding control wells reached an absorbance of about 1.0, the final A450 were recorded for analysis. The data were analyzed using a macro written for use with the EXCEL™ spreadsheet program. The mean, standard deviation, and %CV were determined for duplicate concentrations. The mean A450 values were normalized to the mean of four maximum-binding controls (no competitor added)(B-MAX). The normalized values were subjected to a four parameter curve fit algorithm [Rodbard et al., Int.

[2] = biological target: T2, Human fibrinogen receptor (αIIbβ3) (Homo sapiens, UniProt P05106+P08514); assay: Purified IIb/IIIa receptor assay (solid phase receptor assay, competition with biotinylated vitronectin); format: binding; conditions: purified receptor from outdated platelets; 1 nM biotinylated vitronectin; highest concentration tested 1.0 x 10^-4 M
T2 construct: Human fibrinogen receptor (αIIbβ3) was purified from outdated platelets; from tissue; host or cells: outdated (human) platelets
Text: PURIFIED IIb/IIIa RECEPTOR ASSAY
Human fibrinogen receptor (αIIbβ3) was purified from outdated platelets. (Pytela, R., Pierschbacher, M.D., Argraves, S., Suzuki, S., and Rouslahti, E. "Arginine-Glycine-Aspartic acid adhesion receptors", Methods in Enzymology 144(1987):475-489.) Human vitronectin was purified from fresh frozen plasma as described in Yatohgo, T., Izumi, M., Kashiwagi, H., and Hayashi, M., "Novel purification of vitronectin from human plasma by heparin affinity chromatography," Cell Structure and Function 13(1988):281-292. Biotinylated human vitronectin was prepared by coupling NHS-biotin from Pierce Chemical Company (Rockford, IL) to purified vitronectin as previously described. (Charo, I.F., Nannizzi, L., Phillips, D.R., Hsu, M.A., Scarborough, R.M., "Inhibition of fibrinogen binding to GP IIb/IIIa by a GP IIIa peptide", J. Biol. Chem. 266(3)(1991): 1415-1421.) Assay buffer, OPD substrate tablets, and RIA grade BSA were obtained from Sigma (St. Louis, MO). Anti-biotin antibody was obtained from Calbiochem (La Jolla, CA). Linbro microtiter plates were obtained from Flow Labs (McLean, VA). ADP reagent was obtained from Sigma (St. Louis, MO).
This assay is essentially the same reported in Niiya, K., Hodson, E., Bader, R., Byers-Ward, V. Koziol, J.A., Plow, E.F. and Ruggeri, Z.M., "Increased surface expression of the membrane glycoprotein IIb/IIIa complex induced by platelet activation: Relationships to the binding of fibrinogen and platelet aggregation", Blood 70(1987):475-483. The purified human fibrinogen receptor (αIIbβ3) was diluted from stock solutions to 1.0 µg/mL in Tris-buffered saline containing 1.0 mM Ca^++, Mg^++, and Mn^++, pH 7.4 (TBS^+++). The diluted receptor was immediately transferred to Linbro microtiter plates at 100 µL/well (100 ng receptor/well). The plates were sealed and incubated overnight at 4°C to allow the receptor to bind to the wells. All remaining steps were at room temperature. The assay plates were emptied and 200 µL of 1% RIA grade BSA in TBS^+++ (TBS^+++/BSA) were added to block exposed plastic surfaces. Following a 2 hour incubation, the assay plates were washed with TBS^+++ using a 96 well plate washer. Logarithmic serial dilution of the test compound and controls were made starting at a stock concentration of 2 mM and using 2 nM biotinylated vitronectin in TBS^+++/BSA as the diluent. This premixing of labeled ligand with test (or control) ligand, and subsequent transfer of 50 µL aliquots to the assay plate was carried out with a CETUS Propette robot; the final concentration of the labeled ligand was 1 nM and the highest concentration of test compound was 1.0 x 10^-4 M. The competition occurred for two hours after which all wells were washed with a plate washer as before. Affinity purified horseradish peroxidase labeled goat anti-biotin antibody was diluted 1:3000 in TBS^+++/BSA and 125 µL were added to each well. After 30 minutes, the plates were washed and incubated with […] substrate in 100 mM/L citrate buffer, pH 5.0. The plate was read with a microtiter plate reader at a wavelength of 450 nm and when the maximum-binding control wells reached an absorbance of about 1.0, the final A450 were recorded for analysis. The data were analyzed using a macro written for use with the EXCEL™ spreadsheet program. The mean, standard deviation, and %CV were determined for duplicate concentrations. The mean A450 values were normalized to the mean of four maximum-binding controls (no competitor added)(B-MAX). The normalized values were subjected to a four parameter curve fit algorithm, [Robard et al., Int. […]

[3] = purified receptor from human placenta, 1 nM biotinylated vitronectin, highest concentration tested 1.0 x 10^-4 M, read-out: AvB3 IC50

Compound | IC50 [1, 3] [nM] | IC50 [2] [nM] | IC50 [1] [nM]
N#CN=C(NCc1ccccc1)Nc1cccc(C(=O)Nc2ccc(CCC(=O)O)cc2)c1 [Example 79, 4-[[[3-[[(cyanoimino)[(phenylmethyl)-amino]methyl]amino]phenyl]carbonyl]amino]-benzenepropanoic acid] | 2290 | 10200 | –
CCOC(=O)CS(=O)(=O)c1ccc(NC(=O)c2cccc(NC(=N)N)c2)cc1 [Example 80, ethyl [[4-[[[3-[(aminoiminomethyl)amino]phenyl]carbonyl]amino]phenyl]sulfonyl]acetate, monohydrate trifluoroacetate salt] | 44200 | 19800 | –
N=C(N)Nc1cccc(C(=O)Nc2ccc(SCC(=O)O)cc2)c1 [Example 82, [[4-[[[3-[(aminoiminomethyl)amino]phenyl]carbonyl]amino]phenyl]thio]acetic acid, trifluoroacetate] | 264 | 332 | –
N=C(N)Nc1cccc(NC(=O)Cc2ccc(OCC(=O)O)cc2)c1 [Example 84, [4-[2-[[3-[(aminoiminomethyl)amino]phenyl]amino]-2-oxoethyl]phenoxy]acetic acid, trifluoroacetate salt] | 16300 | 486 | –
CC(Oc1ccc(NC(=O)c2cccc(NC(=N)N)c2)cc1)C(=O)O (centres unmarked) [Example 85, 2-[4-[[[3-[(aminoiminomethyl)amino]phenyl]. carbonyl]amino]phenoxy]propanoic acid, trifluoroacetate salt] | 827 | 12600 | –
COC(=O)C(C)Oc1ccc(NC(=O)c2cccc(NC(=N)N)c2)cc1 (centres unmarked) [Example 85C] | 39600 | 66000 | –
N=C(N)Nc1cccc(C(=O)Nc2ccc(OC(C(=O)O)c3ccccc3)cc2)c1 (stereo not drawn) [Example 86, α-[4-[[[3-[(aminoiminomethyl)amino]phenyl]carbonyl]amino]phenoxy]benzeneacetic acid, trifluoroacetate salt] | 307 | 3140 | –
CCOC(=O)COc1ccc(NC(=O)c2cccc(NC(=N)N)c2)cc1 [Example 89, ethyl [4-[[[3-[(aminoiminomethyl)amino]phenyl]carbonyl]amino]phenoxy]acetate, trifluoroacetate salt] | 2070 | 16000 | –
NC(N)=Nc1cccc(C(=O)Nc2ccc(CCC(=O)O)c(C(=O)O)c2)c1 [Example 101A, 4-[[[3-[(aminoiminomethyl)amino]phenyl]carbonyl]-amino]-2-carboxybenzenepropanoic acid, bis(trifluoroacetate) salt] | 9 | 57 | –
COC(=O)c1cc(NC(=O)c2cccc(NC(=N)N)c2)ccc1CCC(=O)O [Example 101B, 4-[[[3-[(aminoiminomethyl)amino]phenyl]carbonyl]-amino]-2-methoxycarbonyl)benzenepropanoic acid, bis(trifluoroacetate) salt] | 35 | 286 | –
O=C(O)CCc1ccc(NC(=O)c2cccc(NC3=NCCCN3)c2)cc1C(=O)O [Example 102, 2-carboxy-4-[[[3-[(1,4,5,6-tetrahydropyrimidin-2-yl)-amino]phenyl]carbonyl]amino]benzenepropanoic acid, trifluoroacetate salt] | 6 | 4710 | –
CC(C)OC(=O)NC(Cc1ccc(NC(=O)c2cccc(NC(N)=NC(N)=O)c2)cc1)C(=O)O (centres unmarked) [Example 105, 4-[[[3-[[amino[(aminocarbonyl)imino]methyl]-amino]phenyl]carbonyl]amino]-N-[(1-methylethoxy]carbonyl]phenylalanine, bis(trifluoroacetate) salt] | 2 | 267 | –
CC(C)CC(=O)NC(Cc1ccc(NC(=O)c2cccc(NC(=N)N)c2)cc1)C(=O)O (centres unmarked) [Example 106, 4-[[[3-[(aminoiminomethyl]amino]phenyl]-carbonyl]amino]-N-[(3-methyl-1-oxobutyl)-phenylalanine, bis(trifluoroacetate) salt] | – | 77 | 5
CC(C)CC(=O)N[C@@H](Cc1ccc(NC(=O)c2cc(NC3=NCCCN3)cc(C(F)(F)F)c2)cc1)C(=O)O [Example 107, N-(3-methyl-1-oxobutyl)-4-[[[3-[(1,4,5,6-tetrahydro-pyrimidin-2-yl)amino]-5-(trifluoromethyl)phenyl]-carbonyl]amino]phenylalanine, trifluoroacetate salt] | 0.5 | 1570 | –
CC(C)CC(=O)NC(Cc1ccc(NC(=O)c2cc(NC(=N)N)cc(C(F)(F)F)c2)cc1)C(=O)O (centres unmarked) [Example 108, 4-[[[3-[(aminoiminomethyl)amino]-5-(trifluoromethyl)-phenyl]carbonyl]amino]-N-(3-methyl-1-oxobutyl) phenylalanine, trifluoroacetate salt] | 4 | 109 | –
O=C(Nc1ccc(C[C@H](NS(=O)(=O)c2ccccc2)C(=O)O)cc1)c1cccc(NC2=NCCCN2)c1 [Example 111, N-(phenylsulfonyl)-4-[[[3-[(1,4,5,6-tetrahydro-pyrimidin-2-yl)amino]phenyl]carbonyl]amino]-phenylalanine, trifluoroacetate salt] | 0.1 | 6 | –
